Data as given in US4032645A, “Injectable metronidazole composition” (G. D. Searle & Co., priority 1975, dated 1977).
Read-outs that look alike come from different tables or passages of the source.

Legend:
[1] = assay type: physicochemical; conditions: for amount dissolved: ethanol
Description: The critical features of the solubility of metronidazole, [1-(2-hydroxyethyl)-2-methyl-5-nitroimidazole] are evident from FIGS. 1 through 6.
It is observed that the optimum solubility in water-ethanol mixtures occur at about 80% ethanol.
It is considered desirable to maintain N,N-dimethylacetamide concentrations in any formulation at a relatively low level. In FIG. 2, it is shown that 20% N,N-dimethylacetamide is not a suitable solvent system in combination with water or ethanol alone. Those satisfied with less desirable formulation could use a solvent system of 20% N,N-dimethylacetamide, 40% water, and 40% ethanol. […] One would also believe this for combinations of 30% N,N-dimethylacetamide and water and ethanol.
It can be observed from FIG. 3 that, unexpectedly, a solvent system of 30% N,N-dimethylacetamide in combination with the indicated proportions of ethanol and water solubilizes more than 500 mg./10 ml. of metronidazole.
Also, unexpectedly, FIGS. 4, 5 and 6 illustrate that the combination of ethanol, water and N,N-dimethylacetamide can be made to dissolve more than 500 mg. of metronidazole by the addition of nicotinamide, propylene glycol or 2,2-dimethyl-1,3-dioxolane-4-methanol. These systems have the advantages of an even lower percentage composition of N,N-dimethylacetamide. Optimum systems and the solubility of metroinidazole therein are illustrated in Table 1.

[2] = most stable at a pH range; cited from earlier work
[3] = water; cited from earlier work

ethanol content at optimum solubility in water-ethanol mixtures [1]: about 80%
solubility [1]: more than 500 mg./10 ml.
amount dissolved ([1]; water and N,N-dimethylacetamide with addition of 2,2-dimethyl-1,3-dioxolane-4-methanol (FIG. 5)): more than 500 mg.
amount dissolved ([1]; water and N,N-dimethylacetamide with addition of nicotinamide (FIG. 6)): more than 500 mg.
amount dissolved ([1]; water and N,N-dimethylacetamide with addition of propylene glycol (FIG. 4)): more than 500 mg.
SMILES: Cc1ncc([N+](=O)[O-])n1CCO [metronidazole, 1-(2-hydroxyethyl)-2-methyl-5-nitroimidazole]
pH range of greatest stability [2]: 5.0-7.5
aqueous solubility [3]: about 100 mg./10 ml.
